# Assay results published in patent publication US20100048714A1, “Methods and Compositions Related to Inhibition of Ceramide Synthesis” (University of Utah Research Foundation, priority 2006, published 2010).
# How the values were obtained:
# Sprague-Dawley rats [1] = assay: Lipid infusion with hyperinsulinemic euglycemic clamps; type: in vivo, rat; settings: for Glucose, During Clamp / FFA, Before Clamp / FFA, Before Infusion / FFA, During Clamp / Glucose, Before Clamp / Glucose, Before Infusion / Insulin, Before Clamp / Insulin, Before Infusion / Insulin, During Clamp: plasma, mean ± standard error, n=4; for Glucose, During Clamp: 30 minute steady state
# Description: The more common mechanism by which insulin resistance likely develops in the obese is through the accumulation of fats in tissues not-suited for lipid storage. Indeed, intramyocellular lipid levels inversely correlate with insulin sensitivity, and are one of the best predictors of insulin resistance in humans. To mimic this condition in rats, a 20% lard oil-heparin infusate was delivered into the bloodstream of Sprague-Dawley rats via jugular catheters. […] To assess muscle insulin sensitivity during the infusion, hyperinsulinemic-euglycemic clamps were performed on conscious, unrestrained rats during the terminal 90 minutes of the protocol. Lard oil infusion decreased insulin-stimulated glucose disposal to 47% of glycerol treated control subjects (FIG. 3C). […] Differences in the glucose infusion rats could not be accounted for by the slight differences in the glucose concentration that was achieved during the clamp nor to differences in steady-state insulin concentrations (Table 3).
# Male Sprague-Dawley rats (˜250 grams) were randomly divided into nine different groups. Glycerol, 20% lard oil, or 20% soy oil emulsions were prepared as previously described (Stein 1997) and infused at a constant rate of 5 mL/Kg/hour. To activate lipoprotein lipase, heparin (6 units/hour) was added to the triglyceride emulsions. Lipids were infused in animals treated with control injections (normal saline), myriocin (100 μg/Kg IP) or cycloserine (50 mg/Kg IP). Drugs were given 12 hours prior to lipid infusion and equivalent doses were given intravenously at the time of infusion. […] Following lipid infusion animals were deeply anesthetized with sodium pentobarbital and soleus muscles were rapidly dissected out and rapidly frozen in liquid nitrogen.
# Clamps were performed in conscious unrestrained animals using swivels and tethers (Instech, Plymouth Meeting, Pa.) to allow uninterrupted movement of the animal without disruption of infusion lines. Hyperinsulinemia was initiated by intravenous infusion of insulin (10 mU/kg/min at a flow rate of 4 μL/min).
# male Sprague Dawley Rats = assay: Insulin tolerance test in dexamethasone-treated rats; type: in vivo, rat; settings: dexamethasone 400 μg/kg IP 24 and 12 hours prior; myriocin 0.3 mg/kg/2 days for 1 week
# Description: Following an overnight fast, insulin was injected (20 U, IP) and whole blood glucose was determined by glucometer. Values are presented as the ratio of measured blood glucose to fasting blood glucose.
# To definitively evaluate effects on insulin sensitivity, as well as to distinguish whether the treatment protocols differentially affected glucose uptake in skeletal muscle or hepatic output by the liver, hyperinsulinemic-euglycemic clamps with D-[U-^14C] glucose and 2-deoxy-D-[2,6-^3H] glucose tracers were performed.
# Sprague dawley rats = assay: Hyperinsulinemic euglycemic clamps of dexamethasone treated rats; type: in vivo, rat; settings: plasma, 60 minute steady state, mean ± standard error, n=4
# DIO mice = assay: Myriocin in non-diabetic insulin resistance model, DIO mice; type: in vivo
# Sprague-Dawley rats [2] = assay: Glucose tolerance test (glucose 1 g/kg IP) in dexamethasone-treated rats; type: in vivo, rat
# Description: (A) Sprague-Dawley rats were treated with myriocin (300 μg/Kg, IP, solid bars) or saline (open bars) for two weeks prior to giving administering dexamethasone (40 μg/Kg, IP) or vehicle (5% ethanol) every 12 hours for 36 hours. Animals were euthanized by CO2 inhalation, livers were removed, and ceramide levels were assessed as described in SOM-Methods. Shown are mean ceramide levels+/−S.E.M, n=6 per group. The asterisk denotes that the sample was statistically different from vehicle-treated controls, p<0.05, student's t-test. (B) Livers were obtained as in A, above, and protein and mRNA were extracted as described in SOM-Methods. Levels of transcripts (solid bars) encoding serine palimitoyl transferase isoforms 1 and 2 (SPT1 and SPT2), dihydroceramide synthases (DCS) TL1, UOG, and TRH3, glucosylceramide synthase (GCS), and acid ceramidase (AC) transcripts were obtained by reverse-transcriptase polymerase chain reaction, normalized to β-actin. SPT2 protein levels (white bars) were detected by immunoblotting with an antibody from Cayman Chemicals (Ann Arbor, Mich.) and quantified on a Kodak Image Station 2000R (Rochester, N.Y.). Data represent the fold-change in transcript or protein in dexamethasone-treated animals relative to vehicle controls. […] (C and D) Rats were challenged with glucose (1 g/kg) given intraperitoneally (IP) following treatment with dexamethasone (squares), ethanol carrier (triangles), myriocin (open shapes), or saline (solid shapes) as in A, above. Tail vein blood (3 μl) was sampled for glucose (C)(using the Glucometer Elite from Bayer Corp., Tarrytown, N.Y.) or insulin (D) (using an Elisa kit from Linco Diagnostics, Springfield, Mo.). […] (E-G) Hyperinsulinemic euglycemic clamps were performed on animals (n=4 per group) treated as in A, above, as described in SOM-Methods. Data from animals receiving myriocin are depicted in solid bars. (E) The glucose infusion rate required to maintain normal glycemia during insulin infusion ([…]) was calculated as the average infusion rate during the 60 minute steady state. (F) Hepatic glucose output was estimated by the disappearance of [^14C] glucose from a bolus dose given during the steady state minus the glucose infusion rate. (G) Disappearance of a bolus dose of [^3H] 2-deoxyglucose from the bloodstream was used to estimate the rate of whole body glucose uptake.
# Tail vein blood (3 μl) was sampled for glucose determination (Hitachi 911 clinical chemistry analyzer, Roche, Indianapolis, Ind. or Glucometer Elite, Bayer Corp., Tarrytown, N.Y.)-30 minutes, immediately before and 15, 30, 45, 60, 90, and 120 min after glucose administration. Additionally, serum was collected and analyzed for insulin by Elisa (Linco Diagnostics, Springfield, Mo.).
# [3] = Intralipid infusion, with or without myriocin or cycloserine
# [4] = lard oil infusion, with or without myriocin or cycloserine
# [5] = dexamethasone with or without myriocin pretreatment
# [6] = glucose challenge 1 g/kg IP, n=6 per group, p<0.05
smiles,measurement,setting,value
CCCCCCC(=O)CCCCCC/C=C/C[C@@H](O)[C@H](O)[C@@](N)(CO)C(=O)O [Myriocin],insulin-stimulated glucose disposal / insulin resistance,Sprague-Dawley rats [1]; [3],Neither myriocin nor cycloserine prevented
same,muscle DAG levels,Sprague-Dawley rats [1]; [3],Neither myriocin nor cycloserine prevented
same,ceramide in skeletal muscle,Sprague-Dawley rats [1]; [4],blocked ceramide synthesis
same,diacylglycerol (DAG) in muscle,Sprague-Dawley rats [1]; [4],Neither myriocin nor cycloserine reduced DAG
same,glucose utilization in clamp,Sprague-Dawley rats [1]; lard-infused animals,restored glucose utilization
same,"Glucose, During Clamp",Sprague-Dawley rats [1]; Lipid: Glycerol,111.2 ± 6.6 mg/dL
same,"Glucose, During Clamp",Sprague-Dawley rats [1]; Lipid: Lard oil (PBS or drug),108.4 ± 1.0 mg/dL
same,"Glucose, During Clamp",Sprague-Dawley rats [1]; Lipid: Soy oil (PBS or drug),108.3 ± 0.4 mg/dL
same,"FFA, Before Clamp",Sprague-Dawley rats [1]; Lipid: Glycerol,0.455 ± 0.13 mM
same,"FFA, Before Infusion",Sprague-Dawley rats [1]; Lipid: Glycerol,1.22 ± 0.25 mM
same,"FFA, During Clamp",Sprague-Dawley rats [1]; Lipid: Glycerol,0.872 ± 0.75 mM
same,"Glucose, Before Clamp",Sprague-Dawley rats [1]; Lipid: Glycerol,117.7 ± 9.1 mg/dL
same,"Glucose, Before Infusion",Sprague-Dawley rats [1]; Lipid: Glycerol,103.0 ± 10.6 mg/dL
same,"Insulin, Before Clamp",Sprague-Dawley rats [1]; Lipid: Glycerol,1.90 ± 0.71 ng/mL
same,"Insulin, Before Infusion",Sprague-Dawley rats [1]; Lipid: Glycerol,0.436 ± 0.03 ng/mL
same,"Insulin, During Clamp",Sprague-Dawley rats [1]; Lipid: Glycerol,8.02 ± 2.52 ng/mL
same,"FFA, Before Clamp",Sprague-Dawley rats [1]; Lipid: Lard oil (PBS or drug),1.52 ± 0.49 mM
same,"FFA, Before Infusion",Sprague-Dawley rats [1]; Lipid: Lard oil (PBS or drug),0.912 ± 0.30 mM
same,"FFA, During Clamp",Sprague-Dawley rats [1]; Lipid: Lard oil (PBS or drug),2.427 ± 0.30 mM
same,"Glucose, Before Clamp",Sprague-Dawley rats [1]; Lipid: Lard oil (PBS or drug),123.3 ± 3.8 mg/dL
same,"Glucose, Before Infusion",Sprague-Dawley rats [1]; Lipid: Lard oil (PBS or drug),101.0 ± 11.4 mg/dL
same,"Insulin, Before Clamp",Sprague-Dawley rats [1]; Lipid: Lard oil (PBS or drug),1.90 ± 0.50 ng/mL
same,"Insulin, Before Infusion",Sprague-Dawley rats [1]; Lipid: Lard oil (PBS or drug),0.407 ± 0.47 ng/mL
same,"Insulin, During Clamp",Sprague-Dawley rats [1]; Lipid: Lard oil (PBS or drug),17.02 ± 3.79 ng/mL
same,"FFA, Before Clamp",Sprague-Dawley rats [1]; Lipid: Soy oil (PBS or drug),1.58 ± 0.57 mM
same,"FFA, Before Infusion",Sprague-Dawley rats [1]; Lipid: Soy oil (PBS or drug),1.01 ± 0.10 mM
same,"FFA, During Clamp",Sprague-Dawley rats [1]; Lipid: Soy oil (PBS or drug),1.80 ± 0.44 mM
same,"Glucose, Before Clamp",Sprague-Dawley rats [1]; Lipid: Soy oil (PBS or drug),105.0 ± 4.6 mg/dL
same,"Glucose, Before Infusion",Sprague-Dawley rats [1]; Lipid: Soy oil (PBS or drug),109.3 ± 10.4 mg/dL
same,"Insulin, Before Clamp",Sprague-Dawley rats [1]; Lipid: Soy oil (PBS or drug),2.46 ± 1.1 ng/mL
same,"Insulin, Before Infusion",Sprague-Dawley rats [1]; Lipid: Soy oil (PBS or drug),0.305 ± 0.08 ng/mL
same,"Insulin, During Clamp",Sprague-Dawley rats [1]; Lipid: Soy oil (PBS or drug),11.55 ± 2.91 ng/mL
same,insulin sensitivity in insulin tolerance tests,male Sprague Dawley Rats,fully negated
same,"Glucose, During Clamp",Sprague dawley rats; Dexamethasone-treated (Saline or Myriocin),129.3 ± 3.7 mg/dL
same,"Glucose, During Clamp",Sprague dawley rats; Dexamethasone: Control,130.5 ± 2.9 mg/dL
same,glucose homeostasis,DIO mice,improved glucose homeostasis
same,insulin levels,DIO mice,lowered insulin levels
same,glucose disposal / glucose intolerance in glucose tolerance test,Sprague-Dawley rats [2]; [5],significantly negated glucocorticoid-induced glucose intolerance
same,insulin levels during glucose tolerance test,Sprague-Dawley rats [2]; [5],normalized circulating insulin concentrations
same,"area under the curve, glucose",Sprague-Dawley rats [2]; [6],significantly lowered the area under the curve
same,"area under the curve, insulin",Sprague-Dawley rats [2]; [6],significantly lowered the area under the curve
